Test results from patent US4064228A (priority 1975, dated 1977).
Where two headings read alike, the source gives them in different places.

Assays:
[1] = tested on: antibody raised to azomorphine conjugate (crude antisera); type: binding; conditions: morphine taken as 100%; for % Cross-reactivity: M50/A50 (amounts for 50% inhibition of labeled hapten binding), Abraham method; for Cross-reactivity of morphine-specific antibody (general statement): under the conditions just described / similarly measured
Method: After 2 hours, an equal volume of a neutral, saturated ammonium sulfate solution was added. The resulting precipitates, sedimented by centrifugation at 3000 rpm for 15 minutes at 4° C, were washed once in 50% saturated ammonium sulphate solution. Each precipitate was dissolved in 0.2 ml NCS solubilizer (Amersham-Searle Corp.) and transferred to a scintillation counting vial containing 10 ml. Aquasol dispersant (New England Nuclear Corp.) and counted in a Nuclear Chicago Liquid Scintillation Spectrometer.
Cross-reactivity was computed by the method of Abraham, J. Clin. Endocrin. & Metab.

[2] = tested on: antibody IgG raised to azomorphine conjugate (morphine-specific); type: binding
Method: The dried sorbent (300 mg) was washed with 50 ml. saline (0.9%) five times and suspended in a final volume of 15 ml, to which 5 ml of crude antiserum raised to the azomorphine conjugate of Example 5, supra was added. […] The matrix recovered by centrifugation was used as a slurry. 10 ml, […] HCL was added to sorbent. After centrifugation for 1 minute the filtered supernatant was neutralized at once with 1 M dibasic sodium phosphate. The acid base cycle was repeated three times. The recovered antibody solution was dialyzed against 12 liters of 0.1 M phosphate buffer, pH 7.4. […] The specificities of recovered antibody IgG were next determined by immune fluorescence techniques.
Quenching of antibody fluorescence was performed using antibody IgG from non pooled samples. […] Native alkaloid was added in increasing amounts to each tube containing azomorphine and IgG in a 10:1 hapten: antibody ratio (× 10^-10 moles/ml). The alkaloid was added to IgG simultaneously with or in advance of azomorphine. All dilutions were done in triplicate. Incubations including controls were carried out for 10 minutes to 12 hours at 23° C.

[3] = tested on: opium alkaloid antibody (prior art, raised with morphine); conditions: summary of all prior art known to applicant; cited from earlier work
[4] = tested on: antibody to 3-carboxymethyl opium alkaloid-protein antigen (Spector); conditions: Spector U.S. Pat. Nos. 3,709,868 and 3,822,245; cited from earlier work
[5] = tested on: antibody to 3-carboxymethyl opium alkaloid-protein antigen (Leute); conditions: Leute et al., J.A.M.A. 1972; Nature (New Biology) 1972; cited from earlier work
antibodies to serotonin = conditions: reported by Spector et al., Science 179:1340 (1973); cited from earlier work
[6] = even in vast hapten excess, azomorphine:IgG 10:1

SMILES	% Cross-reactivity [1]	Cross-reactivity of morphine-specific antibody (general statement) [1]	Inhibition of fluorescence quenching [2, 6]	further results
COc1ccc2c3c1O[C@H]1[C@@H](O)C=C[C@H]4[C@@H](C2)N(C)CC[C@@]341 [Codeine, codeine]	11%	≤ 20%	slight	Cross-reactivity with codeine [3]: extremely high cross-reactivity; Cross-reactivity with codeine [4]: very high cross-reactivity; Cross-reactivity with codeine [5]: high cross-reactivity
COc1ccc2c(c1)[C@@]13CCCC[C@H]1[C@@H](C2)N(C)CC3 [Dextromethorphan, 3-methoxy N-methyl morphinan]	0.01%	≤ 0.1%	slight	
CCOc1ccc2c3c1O[C@H]1[C@@H](O)C=C[C@H]4[C@@H](C2)N(C)CC[C@@]341 [Ethylmorphine]	16%			
CN1CC[C@]23c4c5cc(N=Nc6ccc(C(=O)O)cc6)c(O)c4O[C@H]2[C@@H](O)C=C[C@H]3[C@H]1C5 [Example 1, 2-(4'-carboxyphenylazo) morphine]		about 100%		Association constants determined by the Sips equation applied to fluorescence data ([2]; antibody IgG from non pooled samples): 1e+07 to 3e+08 L/mol; Quenching maxima (antibody fluorescence) ([2]; antibody IgG from non pooled samples, azomorphine as quencher, 23° C): 56-77%
CCC(=O)C(CC(C)N(C)C)(c1ccccc1)c1ccccc1 (stereo not shown) [Methadone]	0.01%	≤ 0.1%		
CC(=O)O[C@H]1C=C[C@H]2[C@H]3Cc4ccc(O)c5c4[C@@]2(CCN3C)[C@H]1O5 [Monoacetylmorphine]	7%	not more than 10%	slight	
CN1CC[C@]23c4c5ccc(O)c4O[C@H]2[C@@H](O)C=C[C@H]3[C@H]1C5 [Morphine, morphine]	100%			Inhibition of fluorescence quenching ([2]; morphine 40 × 10^-10 moles/ml, 1 × 10^-10 moles/ml antibody, 10 × 10^-10 moles/ml azomorphine): completely inhibited
C=CCN1CC[C@]23c4c5ccc(O)c4O[C@H]2[C@@H](O)C=C[C@H]3[C@H]1C5 [N-allylnormorphine]	2%			
CC(=O)Oc1ccc2c3c1O[C@H]1[C@@H](OC(C)=O)C=C[C@H]4[C@@H](C2)N(C)CC[C@@]341 [heroin, Diacetylmorphine]	7%	not more than 10%	slight	
COc1ccc2[nH]cc(CCN)c2c1 [methoxyserotonin, 5-methoxytryptamine]				Cross-reactivity with serotonin antibodies (antibodies to serotonin): substantially complete cross-reactivity
